Assay results as given in US20260297042A1, “BIARYLAMIDE DERIVATIVES AND THEIR USE AS PKMYT1 INHIBITORS” (CANCER RESEARCH TECHNOLOGY LIMITED, priority 2023, published 2026).

Key:
Human PKMYT1 = target: T1, Human PKMYT1 (Homo sapiens, UniProt Q99640); assay: PKMYT1 biochemical ADP-Glo enzymatic assay; details: ADP-Glo; 15 nM PKMYT1 kinase domain, 500 µM ATP, 60 minutes at 26° C.; banded
T1 construct: Human PKMYT1 75-362 was cloned as a TEV cleavable 6xHis fusion; 6xHis (TEV cleavable) (cleaved yes); made in house; host or cells: bacterial cells
T1 sequence (Q99640 75-362): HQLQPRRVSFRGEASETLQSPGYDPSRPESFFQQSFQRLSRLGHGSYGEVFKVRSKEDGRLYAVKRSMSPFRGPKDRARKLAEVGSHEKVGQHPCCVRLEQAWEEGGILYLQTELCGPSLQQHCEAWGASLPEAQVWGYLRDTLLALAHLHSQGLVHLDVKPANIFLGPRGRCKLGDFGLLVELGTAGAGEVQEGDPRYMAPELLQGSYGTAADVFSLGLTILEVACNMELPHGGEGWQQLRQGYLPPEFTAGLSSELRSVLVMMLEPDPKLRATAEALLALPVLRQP
Method in brief: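 Intrinsic ATPase activity of E. coli-expressed, tag-cleaved human PKMYT1 kinase domain (75-362), 15 nM, with 500 µM ATP in HEPES pH 7.5/MgCl2/EGTA/Brij-35, 1% DMSO, 60 min at 26 °C. ADP formed was read by ADP-Glo Max luminescence; IC50 from 10-point, 3-fold dilution curves.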

WEE1 = target: T2, WEE1 (Homo sapiens, UniProt P30291); assay: Selectivity versus WEE1 assay (ADP-Glo enzymatic assay); type: biochemical; details: banded; for IC50: ADP-Glo, 15 nM WEE1, 60 minutes at 26° C.; for PKMYT1 vs. WEE1 selectivity: fold difference in selectivity for PKMYT1 over WEE1, ">N" = at least in this band but could be higher
T2 construct: purchased Thermo Fisher PR7373A
Method in brief: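 Kinase at 15 nM final in 50 mM HEPES pH 7.5, 10 mM MgCl2, 1 mM EGTA, 0.01% Brij-35, 1% DMSO was started with 30 µM ATP and run 60 min at 26° C. ADP formed was read by ADP-Glo luminescence; IC50 came from dose-response curves.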

OVCAR3 cells = assay: Cancer cell line proliferation assay, nuclear count, OVCAR3 (CCNE1-amplified); type: cell-based; details: banded; for Selectivity ratio KYSE30 GI50 vs. OVCAR3 GI50: >N = at least in this band; for GI50: Homo sapiens, OVCAR-3, CCNE1-amplified ovarian cancer, nuclear count
Description: (§1) h-TERT-RPE1 TP53−/− and CCNE1 high expressing clones (clone cell lines 7 and 15) were treated with test compounds dissolved in DMSO at serially diluted concentrations alongside a DMSO only control for around 6 population doublings time. Cells were then fixed with 4% Paraformaldehyde and the cell nuclei were stained with DAPI (Sigma D9542). Images covering each well were acquired by an Opera Phenix® High-Content Screening System (PerkinElmer). Image analysis was performed using Harmony® high-content analysis software (PerkinElmer). Data analysis was performed using Microsoft Excel® and GI50 estimates generated with GraphPad Prism v9. Percent nuclear count was compared to vehicle control wells and used to measure inhibition of proliferation.
(§2) Cancer cell lines with either normal (KYSE-30) or amplified CCNE1 expression (OVCAR3-ovarian cancer) were evaluated for their sensitivity to PKMYT1 inhibitors in a nuclear count assay as described above for h-TERT-RPE1 TP53−/− and a CCNE1 high expressing clones, taking into account the slower cell cycle division times of these lines.

KYSE-30 cells [1] = assay: Cancer cell line proliferation assay, nuclear count, KYSE-30 (normal CCNE1); type: cell-based; details: Homo sapiens, normal CCNE1 expression, banded, read-out: KYSE30 GI50
Description: as §1, §2

[2] = tested on: h-TERT-RPE1 TP53−/− parental cells; assay: Nuclear count cell proliferation assay, parental (wild type) h-TERT-RPE1 TP53−/− cells; type: cell-based; details: hTERT-RPE1, h-TERT-RPE1 TP53−/− parental (Wt), around 6 population doublings, banded, read-out: RPE Wt GI50
Description: as §1

[3] = tested on: h-TERT-RPE1 TP53−/− CCNE1 high expressing clone cell line 15 (CL15); assay: Nuclear count cell proliferation assay, CCNE1 high expressing clone cell line 15 (CL15) of h-TERT-RPE1 TP53−/−; type: cell-based; details: banded; for Selectivity Ratio Wt vs. CL15: GI50 ratio RPE Wt vs. CL15, >N = at least in this band; for GI50: h-TERT-RPE1 TP53−/− CCNE1 high clone CL15, nuclear count, around 6 population doublings, read-out: RPE CL15 GI50
Description: as §1

[4] = tested on: h-TERT-RPE1 TP53−/− CCNE1 high expressing clone cell line 7 (CL7); assay: Nuclear count cell proliferation assay, CCNE1 high expressing clone cell line 7 (CL7) of h-TERT-RPE1 TP53−/−; type: cell-based; details: banded; for Selectivity Ratio Wt vs. CL7: GI50 ratio RPE Wt vs. CL7, >N = at least in this band; for GI50: hTERT-RPE1, h-TERT-RPE1 TP53−/− CCNE1 high clone CL7, nuclear count, around 6 population doublings, read-out: RPE CL7 GI50
Description: as §1

OVCAR 3 cells = assay: Cancer cell line proliferation assay, ATP-based cell viability (Cell Titre Glow), OVCAR 3 (CCNE1-amplified); details: KYSE30 (normal CCNE1) GI50 vs. OVCAR 3 (CCNE1-amplified) GI50
Method in brief: (§3)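 Cells were treated with PKMYT1 inhibitors, then proliferation was assessed with CellTiter-Glo and luminescence read. GI50 values were fitted from the resulting data.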

KYSE-30 cells [5] = assay: Cancer cell line proliferation assay, ATP-based cell viability (Cell Titre Glow), KYSE-30 (normal CCNE1); details: Homo sapiens, KYSE-30 cells (normal CCNE1), concentration that achieves 50% cell growth proliferation inhibition, read-out: KYSE30 Gl50
Method in brief: as §3

T2 sequence (P30291 whole entry): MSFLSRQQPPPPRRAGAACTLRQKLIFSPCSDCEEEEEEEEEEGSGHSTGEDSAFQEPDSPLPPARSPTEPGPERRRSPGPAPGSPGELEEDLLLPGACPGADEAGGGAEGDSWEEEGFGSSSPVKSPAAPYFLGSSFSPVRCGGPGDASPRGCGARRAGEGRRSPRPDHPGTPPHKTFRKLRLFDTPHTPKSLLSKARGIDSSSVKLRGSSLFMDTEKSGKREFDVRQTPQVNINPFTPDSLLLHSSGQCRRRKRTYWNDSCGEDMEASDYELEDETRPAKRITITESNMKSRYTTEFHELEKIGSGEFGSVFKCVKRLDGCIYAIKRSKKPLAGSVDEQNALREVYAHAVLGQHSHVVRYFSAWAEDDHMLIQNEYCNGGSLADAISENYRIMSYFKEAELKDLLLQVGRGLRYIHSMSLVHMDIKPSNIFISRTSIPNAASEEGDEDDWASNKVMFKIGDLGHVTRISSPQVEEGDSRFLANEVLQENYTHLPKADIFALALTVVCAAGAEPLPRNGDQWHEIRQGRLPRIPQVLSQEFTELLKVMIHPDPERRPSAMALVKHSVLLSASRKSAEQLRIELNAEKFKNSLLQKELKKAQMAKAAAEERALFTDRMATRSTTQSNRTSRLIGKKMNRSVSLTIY

IC50 (Human PKMYT1) | IC50 (WEE1) | PKMYT1 vs. WEE1 selectivity (WEE1) | GI50 (OVCAR3 cells) | Structure (SMILES) | Selectivity ratio KYSE30 GI50 vs. OVCAR3 GI50 (OVCAR3 cells) | GI50 (KYSE-30 cells [1]) | GI50 [2] | Selectivity Ratio Wt vs. CL15 [3] | GI50 [3] | Selectivity Ratio Wt vs. CL7 [4] | GI50 [4] | Selectivity ratio KYSE30 Gl50 vs. OVCAR3 Gl50 (OVCAR 3 cells) | GI50 (KYSE-30 cells [5])
50 to 1000 nM | > 11000 nM | >X (100-<1000 fold) | 500 to 3000 nM | Cc1ccc(O)c(C)c1NC(=O)c1cnc(Nc2cc(C(F)(F)F)nn2C)s1 [BAA-046, N-(3-hydroxy-2,6-dimethyl-phenyl)-2-[[2-methyl-5-(trifluoromethyl)pyrazol-3-yl]amino]thiazole-5-carboxamide] | X (3-<10 fold) | 3000 to 10000 nM |  |  |  |  |  |  | 
50 to 1000 nM | > 11000 nM | X (100-<1000 fold) |  | Cc1ccc(O)c(C)c1NC(=O)c1cnc(NC2CC2)s1 [BAA-061, 2-(cyclopropylamino)-N-(3-hydroxy-2,6-dimethyl-phenyl)thiazole-5-carboxamide] |  |  | 3000 to 10000 nM | X (3-<10 fold) | 500 to 3000 nM |  |  |  | 
50 to 1000 nM | > 11000 nM | >X (100-<1000 fold) |  | Cc1ccc(O)c(C)c1NC(=O)c1cnc(NCCCNC(=O)OC(C)(C)C)s1 [BAA-071, tert-butyl N-[3-[5-[(3-hydroxy-2,6-dimethyl-phenyl)carbamoyl]thiazol-2-yllamino]propyl]carbamate] |  |  | > 10000 nM |  |  | X (3-<10 fold) | 500 to 3000 nM |  | 
50 to 1000 nM | > 11000 nM | >X (100-<1000 fold) |  | Cc1ccc(O)c(C)c1NC(=O)c1cnc(Nc2ccn([C@@H]3CCN(Cc4ccccc4)C3)n2)s1 [BAA-113, 2-[[1-[(3R)-1-Benzylpyrrolidin-3-yl]pyrazol-3-yl]amino]-N-(3-hydroxy-2,6-dimethyl-phenyl)thiazole-5-carboxamide] |  |  | 3000 to 10000 nM |  |  | Y (10-30 fold) | 500 to 3000 nM |  | 
50 to 1000 nM | > 11000 nM | >Y (1000-5000 fold) |  | CCOC(=O)c1cn(C)nc1Nc1ncc(C(=O)Nc2c(C)ccc(O)c2C)s1 [BAA-129, ethyl 3-[[5-[(3-hydroxy-2,6-dimethyl-phenyl)carbamoyl]thiazol-2-yl]amino]-1-methyl-pyrazole-4-carboxylate] |  |  | > 10000 nM | X (3-<10 fold) | 500 to 3000 nM |  |  |  | 
< 50 nM | > 11000 nM | Y (1000-5000 fold) |  | Cc1ccc(O)c(C)c1NC(=O)c1cnc(Nc2ccn(CC(=O)N3CCC(C)(C)CC3)n2)s1 [BAA-137] |  |  | 500 to 3000 nM |  |  | X (3-<10 fold) | 500 to 3000 nM |  | 
< 50 nM | 1000 to 11000 nM | X (100-<1000 fold) |  | Cc1ccc(O)c(C)c1NC(=O)c1cnc(Nc2ccn(CC(=O)NC3CCN(C(=O)OC(C)(C)C)CC3)n2)s1 [BAA-152] |  |  | > 10000 nM | X (3-<10 fold) | 500 to 3000 nM |  |  |  | 
50 to 1000 nM | > 11000 nM | X (100-<1000 fold) |  | Cc1ccc(O)c(C)c1NC(=O)c1cnc(Nc2ccn(CC(=O)NCCN(C)C)n2)s1 [BAA-160] |  |  | 3000 to 10000 nM |  |  | X (3-<10 fold) | 500 to 3000 nM |  | 
< 50 nM | > 11000 nM | Y (1000-5000 fold) |  | Cc1ccc(O)c(C)c1NC(=O)c1cnc(Nc2ccn(CC(=O)N3CCN(CC4CC4)CC3)n2)s1 [BAA-183] |  |  | 3000 to 10000 nM |  |  | X (3-<10 fold) | < 500 nM |  | 
< 50 nM | > 11000 nM | Y (1000-5000 fold) |  | Cc1ccc(O)c(C)c1NC(=O)c1cnc(Nc2ccn(CC(=O)NC3CC3)n2)s1 [BAA-190] |  |  | 3000 to 10000 nM |  |  | X (3-<10 fold) | 500 to 3000 nM |  | 
< 50 nM | 1000 to 11000 nM | Y (1000-5000 fold) | 500 to 3000 nM | CCNC(=O)Cn1cc(C)c(Nc2ncc(C(=O)Nc3c(C)ccc(O)c3C)s2)n1 [BAA-206, 2-[[1-[2-(ethylamino)-2-oxo-ethyl]-4-methyl-pyrazol-3-yl]amino]-N-(3-hydroxy-2,6-dimethyl-phenyl)thiazole-5-carboxamide] | >Y (10-30 fold) | > 10000 nM |  |  |  |  |  |  | 
< 50 nM | 1000 to 11000 nM | X (100-<1000 fold) | < 500 nM | Cc1cn(CC(=O)N2CCCC2)nc1Nc1ncc(C(=O)Nc2c(C)ccc(O)c2C)s1 [BAA-208, N-(3-hydroxy-2,6-dimethyl-phenyl)-2-[[4-methyl-1-(2-oxo-2-pyrrolidin-1-yl-ethyl)pyrazol-3-yl]amino]thiazole-5-carboxamide] | Z (>30 fold) | > 10000 nM |  |  |  |  |  | Y (>20 fold) | > 5000 nM
< 50 nM | > 11000 nM | X (100-<1000 fold) |  | Cc1ccc(O)c(C)c1NC(=O)c1cnc(Nc2ccn(CC(=O)OC(C)C)n2)s1 [BAA-209, Isopropyl 2-[3-[[5-[(3-hydroxy-2,6-dimethyl-phenyl)carbamoyl]thiazol-2-yl]amino]pyrazol-1-yl]acetate] |  |  | 500 to 3000 nM |  |  | >X (3-<10 fold) | < 500 nM |  | 
< 50 nM | > 11000 nM | X (100-<1000 fold) |  | Cc1ccc(O)c(C)c1NC(=O)c1cnc(Nc2ccn(CC(=O)NC3CCNCC3)n2)s1 [BAA-224, N-(3-hydroxy-2,6-dimethylphenyl)-2-((1-(2-oxo-2-(piperidin-4-ylamino)ethyl)-1H-pyrazol-3-yl)amino)thiazole-5-carboxamide] |  |  | 3000 to 10000 nM |  |  | Z (>30 fold) | < 500 nM |  | 
< 50 nM | > 11000 nM | Y (1000-5000 fold) |  | Cc1ccc(O)c(C)c1NC(=O)c1cnc(Nc2ccn(CC(=O)N3CCNC(C)(C)C3)n2)s1 [BAA-229, 2-((1-(2-(3,3-dimethylpiperazin-1-yl)-2-oxoethyl)-1H-pyrazol-3-yl)amino)-N-(3-hydroxy-2,6-dimethylphenyl)thiazole-5-carboxamide] |  |  | > 10000 nM |  |  | X (3-<10 fold) | 3000 to 10000 nM |  | 
< 50 nM | > 11000 nM | X (100-<1000 fold) |  | Cc1ccc(O)c(C)c1NC(=O)c1cnc(Nc2ccn(CC(=O)N3CC4CCC(C3)N4)n2)s1 [BAA-230, 2-((1-(2-(3,8-diazabicyclo[3.2.1]octan-3-yl)-2-oxoethyl)-1H-pyrazol-3-yl)amino)-N-(3-hydroxy-2,6-dimethylphenyl)thiazole-5-carboxamide] |  |  | > 10000 nM |  |  | X (3-<10 fold) | 3000 to 10000 nM |  | 
